# According to patent US9550793B2, “Spirocyclic compounds, compositions and medicinal applications thereof” (Advinus Therapeutics Limited, priority 2012, dated 2017):
# Molecular target: T1, hDGAT1 (Homo sapiens, UniProt O75907)
# T1 construct: endogenous in cells; host or cells: HEK293H cells
# T1 sequence (O75907 1-488): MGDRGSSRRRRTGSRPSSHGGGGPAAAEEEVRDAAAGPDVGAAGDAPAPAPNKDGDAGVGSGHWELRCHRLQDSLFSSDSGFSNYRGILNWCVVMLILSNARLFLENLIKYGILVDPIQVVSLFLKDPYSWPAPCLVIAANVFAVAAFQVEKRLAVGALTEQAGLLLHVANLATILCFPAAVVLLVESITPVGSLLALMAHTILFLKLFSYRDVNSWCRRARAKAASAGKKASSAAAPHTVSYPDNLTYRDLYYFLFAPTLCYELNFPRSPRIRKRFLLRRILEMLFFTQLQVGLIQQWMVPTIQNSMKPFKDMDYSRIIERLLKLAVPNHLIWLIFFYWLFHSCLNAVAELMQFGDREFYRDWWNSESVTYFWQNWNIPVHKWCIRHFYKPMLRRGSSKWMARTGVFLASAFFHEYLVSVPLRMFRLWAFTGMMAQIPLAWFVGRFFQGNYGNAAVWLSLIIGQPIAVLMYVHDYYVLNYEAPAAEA
# Test: Cell based hDGAT1 inhibitory activity in HEK293H cells (13C-oleic acid to triolein, LC-MS)
# Details: not given
# Procedure: Measurement of Cell Based hDGAT1 Inhibitory Activity:
# HEK293H cells were seeded in a 96-well poly-D-lysine plate at a density of 80000 cells per well. Following day, cells were washed with assay buffer-DMEM high glucose supplemented with 25 mM Hepes (pH7.5) carrying 0.25% fatty acid-free bovine serum. The cells were starved in assay buffer at 37° C./5% CO2 followed by removal of media and treatment with appropriate concentrations of the test compound at a final concentration of 0.2% DMSO for 20 min. 13C-Oleic acid pre-complexed with BSA (300 uM) was added and cells were incubated further at […]/5% CO2 for 120 min. The supernatant was removed and the cells were allowed to air dry briefly. The extraction solvent (90% isopropyl alcohol and 10% tetrahydrofuran with 20 nM of the internal standard [1,3-di-heptadecanoyl-2-(10Z-heptadecanoyl)-sn-glycerol-d5) was added to the cells, and allowed to shake at room temperature for 15 min. The extract was then transferred to glass vials for LC-MS analysis. An Applied Biosystems API3200 LC/MS system interfaced with a triplequadrupole mass spectrophotometer through a Turbo ion spray source was employed for the LC separation of the analytes using a Hi-Purity ADVANCE column eluted with 10 mM ammonium formate in IPA-H2O (80:20) at a flow rate of 0.4 mL/min. A characteristic in-source fragment ion m/z 639.7 formed from the precursor ion ^13C-54-triolein (m/z 956.8, ammonium adduct) at a collision energy of 30 and declustering potential 70 was monitored. IC50 values of the compounds were determined based on percent inhibition calculated on the basis of area ratio of product (TG) and internal standard (IS).
row,Compound,IC50 [µM]
1,"O=C(Nc1ccc(N2C3CCC2CC2(CC(C(=O)O)C2)C3)nc1)c1nnc(Nc2ccc(F)c(F)c2)o1 (stereo not drawn) [Example B31, 8-[5-[[5-(3,4-difluoroanilino)-1,3,4-oxadiazole-2-carbonyl]amino]-2-pyridyl] spiro [8-azabicyclo [3.2.1]octane-3,3′-cyclobutane]-1′-carboxylic acid]",0.037
2,"O=C(Nc1ccc(C2CCC3(CC2)CC3C(=O)O)cc1)c1nnc(Nc2cccc(Cl)c2)o1 (stereo not drawn) [Example B16, 6-[4-[[5-(3-chloroanilino)-1,3,4-oxadiazole-2-carbonyl]amino]phenyl] spiro [2.5] octane-2-carboxylic acid]",0.016
3,"NC(=O)CC1CCC2(CC1)CCN(c1ccc(NC(=O)c3nnc(Nc4ccc(F)c(F)c4)o3)cn1)CC2 [Example F2, N-[6-[3-(2-amino-2-oxo-ethyl)-9-azaspiro[5.5]undecan-9-yl]-3-pyridyl]-5-(3,4-difluoroanilino)-1,3,4-oxadiazole-2-carboxamide]",0.019
4,"O=C(Nc1ccc(C2CCC3(CC2)CC3C(=O)O)cc1)c1nnc(Nc2ccc(F)c(F)c2)o1 (stereo not drawn) [Example B14, 6-[4-[[5-(3,4-difluoroanilino)-1,3,4-oxadiazole-2-carbonyl]amino]phenyl] spiro [2.5] octane-2-carboxylic acid]",0.021

# The next lines start with the values.
row,IC50 [µM],Compound
1,0.0042,O=C(Nc1ccc(N2CCC3(CC2)CC(O)C3)nc1)c1nnc(Nc2ccc(OCC(F)(F)F)nc2)o1 [Example D6]
2,0.047,"O=C(Nc1ccc(N2CCC3(CC2)CC(C(=O)O)C3)nc1)c1nnc(Nc2ccc(OCC(F)(F)F)nc2)o1 [Example B13, 7-[5-[[5-[[6-(2,2,2-trifluoroethoxy)-3-pyridyl]amino]-1,3,4-oxadiazole-2-carbonyl]amino]-2-pyridyl]-7-azaspiro[3.5]nonane-2-carboxylic acid]"
3,0.011,O=C(Nc1ccc(N2CCC3(CC2)CC(C(=O)N2CC(O)C2)C3)nc1)c1nnc(Nc2ccc(F)c(F)c2)o1 [Example C8]
4,0.064,O=C(Nc1ccc(N2CCC3(CC2)CC(F)(F)C3)nc1)c1nnc(Nc2ccc(OCC(F)(F)F)nc2)o1 [Example D2]
5,0.01,"O=C(Nc1ccc(N2CCC3(CC2)CC(CO)C3)nc1)c1nnc(Nc2ccc(F)c(F)c2)o1 [Example E1, 5-(3,4-difluoroanilino)-N-[6-[2-(hydroxymethyl)-7-azaspiro[3.5]nonan-7-yl]-3-pyridyl]-1,3,4-oxadiazole-2-carboxamide]"

# Same assay, conditions: HEK293-H, 1 uM
row,inhibition at 1 µM [%],Compound
1,37,"O=C(Nc1ccc([C@H]2CC[C@]3(CC2)CC3C(=O)O)nc1)c1nnc(Nc2ccc(F)c(F)c2)o1 (stereo partly drawn) [Example B26, Trans-6-[5-[[5-(3,4-difluoroanilino)-1,3,4-oxadiazole-2-carbonyl]amino]-2-pyridyl] spiro [2.5] octane-2-carboxylic acid]"
2,49,"O=C(Nc1ccc([C@H]2CC[C@]3(CC2)CC3C(=O)O)nc1)c1nnc(Nc2ccccc2)o1 (stereo partly drawn) [Example B24, Trans-6-[5-[(5-anilino-1,3,4-oxadiazole-2-carbonyl)amino]-2-pyridyl] spiro [2.5] octane-2-carboxylic acid]"
3,3,CC1(C)CN(c2ccc(C3CCC4(CCC(CC(=O)O)CC4)CC3)cc2)C(=O)c2c(N)ncnc21 (stereo not drawn) [Example L6]
4,77,O=C(Nc1ccc(N2CCC3(CC2)CC(F)C3)nc1)c1nnc(Nc2ccc(OCC(F)(F)F)nc2)o1 [Example D8]
5,90,COC1CCN(C(=O)C2CC3(CCN(c4ccc(NC(=O)c5nnc(Nc6ccc(F)c(F)c6)o5)cn4)CC3)C2)CC1 [Example C5]
6,86,"O=C(Nc1ccc(N2CCC3(CC2)CC(C(=O)N2CCCC2)C3)nc1)c1nnc(Nc2ccc(F)c(F)c2)o1 [Example C1, 5-(3,4-difluoroanilino)-N-[6-[2-(pyrrolidine-1-carbonyl)-7-azaspiro[3.5]nonan-7-yl]-3-pyridyl]-1,3,4-oxadiazole-2-carboxamide]"
